These results are taken from patent publication US12527835B2, “Brevican-binding peptides for brain tumor imaging” (The Brigham and Women's Hospital, Inc., priority 2018, dated 2026).

The conditions of data set [1]: cited from earlier work.
For data set [2], the target named is T1, glycosylated isoform of normal brevican (Bcan) (Homo sapiens, UniProt Q96GW7).
T1 construct: purchased R&D Systems 4009-BC-050
T1 sequence (Q96GW7 23-911): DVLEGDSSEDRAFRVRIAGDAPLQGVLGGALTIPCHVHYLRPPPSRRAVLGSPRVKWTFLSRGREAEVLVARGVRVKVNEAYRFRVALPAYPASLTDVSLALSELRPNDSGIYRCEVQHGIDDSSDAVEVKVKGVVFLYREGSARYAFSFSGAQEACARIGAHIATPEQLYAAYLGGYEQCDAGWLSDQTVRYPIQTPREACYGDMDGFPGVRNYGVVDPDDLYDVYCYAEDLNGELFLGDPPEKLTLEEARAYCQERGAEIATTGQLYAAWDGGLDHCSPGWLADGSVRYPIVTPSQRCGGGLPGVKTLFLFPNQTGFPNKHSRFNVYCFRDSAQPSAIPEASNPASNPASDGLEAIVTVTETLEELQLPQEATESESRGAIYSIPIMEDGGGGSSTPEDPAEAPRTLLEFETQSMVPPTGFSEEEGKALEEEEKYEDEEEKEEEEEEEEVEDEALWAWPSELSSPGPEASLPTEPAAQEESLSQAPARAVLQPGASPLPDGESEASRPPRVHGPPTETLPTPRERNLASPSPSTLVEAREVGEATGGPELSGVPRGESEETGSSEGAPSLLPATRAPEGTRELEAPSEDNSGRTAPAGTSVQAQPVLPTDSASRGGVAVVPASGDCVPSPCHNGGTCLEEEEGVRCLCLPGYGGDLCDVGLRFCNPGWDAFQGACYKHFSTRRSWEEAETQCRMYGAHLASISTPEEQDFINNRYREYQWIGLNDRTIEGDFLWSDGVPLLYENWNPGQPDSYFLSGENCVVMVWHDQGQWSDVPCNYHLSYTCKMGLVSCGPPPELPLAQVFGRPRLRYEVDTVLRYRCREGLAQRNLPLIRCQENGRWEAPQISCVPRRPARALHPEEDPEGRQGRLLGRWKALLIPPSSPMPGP
Put plainly: Octet steady state binding to fully glycosylated brevican (control). Particulars: Octet steady state analysis. For orientation: Biolayer interferometry detects binding as a change in optical thickness at a sensor tip.

Data set [3] addresses T2, recombinant BΔg protein (deglycosylated brevican) (Homo sapiens, UniProt Q96GW7).
T2 construct: purchased R&D Systems 4009-BC-050
T2 sequence (Q96GW7 23-911): T1 sequence (Q96GW7 23-911)
The experiment in a line: Octet steady state binding affinity to recombinant BΔg. Particulars: KD of labeled versus unlabeled peptide. How it is done:
A ForteBio OctetRed384 instrument was used to study the binding kinetics of each peptide to recombinant human brevican (re-suspended in PBS and 0.1 mM EDTA, pH 6.8). The brevican protein was deglycosylated prior to experimental use in water+0.05% tween, PI, sialidase, 0-glycosidase, N-glycosidase in sodium acetate [200 mM], NaCl [250 mM], Tris-HCl [200 mM], pH 7.5.) in the presence of protease inhibitor overnight at 4° C. (this entire composition will be referred to as ‘de-glycosylation buffer’). […] The final volume for all the solutions was 80 μl/well. Assays were performed at 30° C. in solid black 384-well plates (Geiger Bio-One). Prior to beginning, Ni-NTA biosensors were soaked for 10 min in working buffer. Before loading the protein onto each biosensor, a baseline was established in working buffer for 60 s. Deglycosylated brevican (50 μg/ml BΔg; His-tagged) was loaded on the surface of each biosensors for 180 s. […] Reference biosensors were also included in the plate as internal controls, where biosensors were exposed to the ‘de-glycosylation buffer’ lacking brevican protein during the loading step. A 60 s biosensor washing step was applied. Then, biosensors were exposed to the analyte (peptide) in working buffer (ranging between 0-10 μM BTP) for 300 s during the ‘association’ step. Finally, the biosensors were exposed to working buffer (without peptide) during the ‘dissociation’ step for 600 s. Binding affinity of each peptide was assessed through steady state analysis, where the response unit was plotted over peptide concentration. All data was plotted and curves were fitted using the non-linear ‘one-site specific binding’ fit, and the dissociation constant (KD) value was calculated using the GraphPad Prism software.
Binding kinetics analyses were performed using the Octet RED platform (Forte Bio) to measure the binding affinity of BTP-7, 8 and 9 to purified recombinant BΔg protein.

In another data set the test system is human BBB organoids. Put plainly: BBB organoid peptide permeability assay. Particulars: Cy5.5-labeled peptide, 10 μM, 3 hrs. It counts as in vitro ADME. How it is done:
Immortalized hCMEC/D3, primary HBVP and primary human astrocytes were used for generation of BBB organoids as previously described (Cho et al., Nat Commun 8, 15623 (2017); Fadzen et al., J. Am. Chem. Soc. 139, 15628-15631 (2017)). Briefly, agarose (0.5 g) was dissolved in 50 mL of MilliQ water or PBS in a conical flask and the solution was heated in a microwave for 1-2 minutes until completely dissolved. Melted agarose was transferred into a sterile tissue culture hood and immediately poured into a 50-mL sterile basin. 50 μL of melted agarose was dispensed into each well in a 96-well plate using a multichannel pipette. The plate was set aside to allow agarose to solidify completely inside the wells for at least 15 minutes. […] Each cell type was counted using a hemocytometer, and 1,500 of each cell type were seeded into each well containing solidified agarose. […]
For peptide permeability analyses, after 48 hrs, organoids that formed successfully were pooled together into a 0.5-mL microcentrifuge tube in BBB working medium. […] The organoids were then transferred onto a thin-well chambered coverglass and imaged by confocal fluorescence microscopy. Quantification of peptide permeability was performed using the ImageJ software, where the mean fluorescence intensity of the core of each spheroid (at a depth between 50-90 μm) was measured, and then plotted on GraphPad Prism.

Where a SMILES comes first, the peptide text is derived from it. [ ]: non-standard residue; d: D form. The star is where a group is joined. X1 = O=C(O)c1cc(NC(=S)*)ccc1-c1c2ccc(=O)cc-2oc2cc(O)ccc12; Ahx = NCCCCCC(=O)O

With `CC[C@@]1(O)C(=O)OCc2c1cc1n(c2=O)Cc2cc3ccccc3nc2-1` [CPT, camptothecin], the “solubility of CPT itself” value in data set [1] was “insoluble”.

`CC(C)[C@@H](NC(=O)[C@@H](Cc1c[nH]cn1)NC(=O)CNC(=O)[C@@H](Cc1c[nH]c2ccccc12)NC(=O)[C@@H](CCCCN)NC(=O)[C@H](N)[C@H](C)O)C(=O)N[C@H](CC(N)=O)C(=O)N[C@H](CCCCN)C(=O)NCCCCCC(=O)N[C@@H](CCCCNC(=S)Nc1ccc(-c2c3ccc(=O)cc-3oc3cc(O)ccc23)c(C(=O)O)c1)C(N)=O` [BTP-7 conjugated to a fluorescein dye] (H-[dT][dK][dW]G[dH][dV][dN][dK][Ahx]K(X1)-NH2): the “binding to the glycosylated isoform of normal brevican” value in data set [2] is on record as “does not bind”. In addition, the “binding affinity relative to the unlabeled BTP-7 (times less)” value in data set [3] was “more than 10 times”.

As for `CC(C)[C@@H](NC(=O)[C@@H](Cc1c[nH]cn1)NC(=O)CNC(=O)[C@@H](Cc1c[nH]c2ccccc12)NC(=O)[C@@H](CCCCN)NC(=O)[C@H](N)[C@H](C)O)C(=O)N[C@H](CC(N)=O)C(=O)N[C@H](CCCCN)C(N)=O` [BTP-7, TKWGHVNK], the “influx into the core of the BBB organoids” value with human BBB organoids is listed as “dramatic influx”.
